Results as given in patent US20260042731A1, “(2,4-DICHLOROPHENOXY)ACETIC ACID ANALOGS” (CORTEVA AGRISCIENCE LLC, priority 2022, published 2026).
Like-named read-outs stand apart in the source and are kept apart here.

Legend:
[1] = tested on: Amaranthus rudis (AMATA), tall water hemp; assay: Postemergence herbicide evaluation, growth of Amaranthus rudis (AMATA); assay type: in vivo; details: Amaranthus tuberculatus, post-emergence, read-out: Ave. AMATA
[2] = tested on: Ambrosia artemisiifolia (AMBEL), common ragweed; assay: Postemergence herbicide evaluation, growth of Ambrosia artemisiifolia (AMBEL); assay type: in vivo; details: Ambrosia artemisiifolia, post-emergence, read-out: AVE. AMBEL
[3] = tested on: Abutilon theophrasti (ABUTH), velvetleaf; assay: Postemergence herbicide evaluation, growth of Abutilon theophrasti (ABUTH); assay type: in vivo; details: Abutilon theophrasti, post-emergence, read-out: AVE. ABUTH
[4] = tested on: Chenopodium album (CHEAL), common lambsquarters; assay: Postemergence herbicide evaluation, growth of Chenopodium album (CHEAL); assay type: in vivo; details: Chenopodium album, post-emergence, read-out: Ave. CHEAL
[5] = tested on: glyphosate resistant Conyza canadensis (L.) (ERICA), horseweed; assay: Postemergence herbicide evaluation, growth of Conyza canadensis (ERICA); assay type: in vivo; details: Erigeron canadensis, post-emergence, read-out: Ave. ERICA
[6] = Volatility of compounds measured by thermogravimetric analysis (TGA); assay type: physicochemical
[7] = tested on: weeds (ABUTH, AMATA, AMBEL, CHEAL, ERICA); assay: Postemergence herbicide evaluation, overall average % weed control across ABUTH, AMATA, AMBEL, CHEAL, ERICA; assay type: in vivo; details: post-emergence, average over the five weeds, read-out: Overall Ave % Weed Control; for pest or weed control at 280 g/ha: 280 g ae/ha; for pest or weed control at 560 g/ha: 560 g ae/ha
[8] = 168 h, 280 g ae/ha, 7 DAA, percent reduction in plant size relative to untreated control
[9] = 168 h, 560 g ae/ha, 7 DAA, percent reduction in plant size relative to untreated control
[10] = 336 h, 280 g ae/ha, 14 DAA, percent reduction in plant size relative to untreated control
[11] = 336 h, 560 g ae/ha, 14 DAA, percent reduction in plant size relative to untreated control
[12] = 504 h, 280 g ae/ha, 21 DAA, percent reduction in plant size relative to untreated control
[13] = 504 h, 560 g ae/ha, 21 DAA, percent reduction in plant size relative to untreated control

Cn1c(O)c(C(=O)COc2ccc(Cl)cc2Cl)c2ccccc21 [Compound C1, 2-(2,4-Dichlorophenoxy)-1-(2-hydroxy-1-methyl-1H-indol-3-yl)ethanone]
pest or weed control at 280 g/ha [1, 8]: 63% | pest or weed control at 560 g/ha [1, 9]: 0% | pest or weed control at 280 g/ha [1, 10]: 70% | pest or weed control at 560 g/ha [1, 11]: 0% | pest or weed control at 280 g/ha [1, 12]: 68% | pest or weed control at 560 g/ha [1, 13]: 0% | pest or weed control at 280 g/ha [2, 8]: 48% | pest or weed control at 560 g/ha [2, 9]: 0% | pest or weed control at 280 g/ha [2, 10]: 65% | pest or weed control at 560 g/ha [2, 11]: 0% | pest or weed control at 280 g/ha [2, 12]: 65% | pest or weed control at 560 g/ha [2, 13]: 0% | pest or weed control at 280 g/ha [3, 8]: 68% | pest or weed control at 560 g/ha [3, 9]: 0% | pest or weed control at 280 g/ha [3, 10]: 63% | pest or weed control at 560 g/ha [3, 11]: 0% | pest or weed control at 280 g/ha [3, 12]: 63% | pest or weed control at 560 g/ha [3, 13]: 0% | pest or weed control at 280 g/ha [4, 8]: 68% | pest or weed control at 560 g/ha [4, 9]: 0% | pest or weed control at 280 g/ha [4, 10]: 78% | pest or weed control at 560 g/ha [4, 11]: 0% | pest or weed control at 280 g/ha [4, 12]: 77% | pest or weed control at 560 g/ha [4, 13]: 0% | pest or weed control at 280 g/ha [5, 8]: 60% | pest or weed control at 560 g/ha [5, 9]: 0% | pest or weed control at 280 g/ha [5, 10]: 85% | pest or weed control at 560 g/ha [5, 11]: 0% | pest or weed control at 280 g/ha [5, 12]: 90% | pest or weed control at 560 g/ha [5, 13]: 0% | TGA Data (rate of weight loss, volatility) [6]: 0.7 µg/min | pest or weed control at 280 g/ha ([7]; 168 h, 7 DAA): 61% | pest or weed control at 560 g/ha ([7]; 168 h, 7 DAA): 0% | pest or weed control at 280 g/ha ([7]; 336 h, 14 DAA): 72% | pest or weed control at 560 g/ha ([7]; 336 h, 14 DAA): 0% | pest or weed control at 280 g/ha ([7]; 504 h, 21 DAA): 72% | pest or weed control at 560 g/ha ([7]; 504 h, 21 DAA): 0%

O=C(COc1ccc(Cl)cc1Cl)n1cnc2ccccc21 [Compound D4, 1-(1H-Benzo[d]imidazol-1-yl)-2-(2,4-dichlorophenoxy)ethanone]
pest or weed control at 280 g/ha ([1]; 168 h): 75% | pest or weed control at 560 g/ha ([1]; 168 h): 83% | pest or weed control at 280 g/ha ([1]; 336 h): 75% | pest or weed control at 560 g/ha ([1]; 336 h): 97% | pest or weed control at 280 g/ha ([1]; 504 h): 75% | pest or weed control at 560 g/ha ([1]; 504 h): 95% | pest or weed control at 280 g/ha ([2]; 168 h): 60% | pest or weed control at 560 g/ha ([2]; 168 h): 68% | pest or weed control at 280 g/ha ([2]; 336 h): 85% | pest or weed control at 560 g/ha ([2]; 336 h): 95% | pest or weed control at 280 g/ha ([2]; 504 h): 85% | pest or weed control at 560 g/ha ([2]; 504 h): 98% | pest or weed control at 280 g/ha ([3]; 168 h): 85% | pest or weed control at 560 g/ha ([3]; 168 h): 93% | pest or weed control at 280 g/ha ([3]; 336 h): 95% | pest or weed control at 560 g/ha ([3]; 336 h): 96% | pest or weed control at 280 g/ha ([3]; 504 h): 98% | pest or weed control at 560 g/ha ([3]; 504 h): 98% | pest or weed control at 280 g/ha ([4]; 168 h): 68% | pest or weed control at 560 g/ha ([4]; 168 h): 65% | pest or weed control at 280 g/ha ([4]; 336 h): 75% | pest or weed control at 560 g/ha ([4]; 336 h): 85% | pest or weed control at 280 g/ha ([4]; 504 h): 83% | pest or weed control at 560 g/ha ([4]; 504 h): 93% | pest or weed control at 280 g/ha ([5]; 168 h): 70% | pest or weed control at 560 g/ha ([5]; 168 h): 70% | pest or weed control at 280 g/ha ([5]; 336 h): 83% | pest or weed control at 560 g/ha ([5]; 336 h): 94% | pest or weed control at 280 g/ha ([5]; 504 h): 88% | pest or weed control at 560 g/ha ([5]; 504 h): 99% | TGA Data (rate of weight loss, volatility) [6]: 0.2 µg/min | pest or weed control at 280 g/ha ([7]; 168 h, 7 DAA): 72% | pest or weed control at 560 g/ha ([7]; 168 h, 7 DAA): 76% | pest or weed control at 280 g/ha ([7]; 336 h, 14 DAA): 83% | pest or weed control at 560 g/ha ([7]; 336 h, 14 DAA): 93% | pest or weed control at 280 g/ha ([7]; 504 h, 21 DAA): 86% | pest or weed control at 560 g/ha ([7]; 504 h, 21 DAA): 97%

O=C(COc1ccc(Cl)cc1Cl)Nc1ccc(Cl)cc1 [Compound D6, N-(4-Chlorophenyl)-2-(2,4-dichlorophenoxy)acetamide]
pest or weed control at 280 g/ha ([1]; 168 h): 68% | pest or weed control at 560 g/ha ([1]; 168 h): 63% | pest or weed control at 280 g/ha ([1]; 336 h): 84% | pest or weed control at 560 g/ha ([1]; 336 h): 70% | pest or weed control at 280 g/ha ([1]; 504 h): 80% | pest or weed control at 560 g/ha ([1]; 504 h): 65% | pest or weed control at 280 g/ha ([2]; 168 h): 58% | pest or weed control at 560 g/ha ([2]; 168 h): 58% | pest or weed control at 280 g/ha ([2]; 336 h): 78% | pest or weed control at 560 g/ha ([2]; 336 h): 68% | pest or weed control at 280 g/ha ([2]; 504 h): 88% | pest or weed control at 560 g/ha ([2]; 504 h): 63% | pest or weed control at 280 g/ha ([3]; 168 h): 50% | pest or weed control at 560 g/ha ([3]; 168 h): 60% | pest or weed control at 280 g/ha ([3]; 336 h): 33% | pest or weed control at 560 g/ha ([3]; 336 h): 58% | pest or weed control at 280 g/ha ([3]; 504 h): 35% | pest or weed control at 560 g/ha ([3]; 504 h): 53% | pest or weed control at 280 g/ha ([4]; 168 h): 60% | pest or weed control at 560 g/ha ([4]; 168 h): 73% | pest or weed control at 280 g/ha ([4]; 336 h): 65% | pest or weed control at 560 g/ha ([4]; 336 h): 75% | pest or weed control at 280 g/ha ([4]; 504 h): 68% | pest or weed control at 560 g/ha ([4]; 504 h): 68% | pest or weed control at 280 g/ha ([5]; 168 h): 65% | pest or weed control at 560 g/ha ([5]; 168 h): 60% | pest or weed control at 280 g/ha ([5]; 336 h): 83% | pest or weed control at 560 g/ha ([5]; 336 h): 78% | pest or weed control at 280 g/ha ([5]; 504 h): 83% | pest or weed control at 560 g/ha ([5]; 504 h): 75% | TGA Data (rate of weight loss, volatility) [6]: 0.02 µg/min | pest or weed control at 280 g/ha ([7]; 168 h, 7 DAA): 60% | pest or weed control at 560 g/ha ([7]; 168 h, 7 DAA): 63% | pest or weed control at 280 g/ha ([7]; 336 h, 14 DAA): 68% | pest or weed control at 560 g/ha ([7]; 336 h, 14 DAA): 70% | pest or weed control at 280 g/ha ([7]; 504 h, 21 DAA): 71% | pest or weed control at 560 g/ha ([7]; 504 h, 21 DAA): 65%
